Measurements: patent US4543350A, “Carcinostatic agent” (Sanyo Machine Works, Ltd., priority 1982, dated 1985)
“And” between values parts separate entries of the source, which are not always exact repeats. Identical values can stand only once.

Key:
[1] = system: Colon 26 (Balb/C Colon cancer); assay: Colon 26 transplanted subcutaneously to Balb/C mice: tumor weight and survival rate; assay type: in vivo; conditions: Colon 26 s.c. in Balb/C mice; Eisenin i.p. 5 mg per animal every other day three times
Source text: (§1) The animals used as experimental materials were Balb/C mice and nude mice, and the tumors used were Colon (Balb/C Colon cancer) and Sarcoma 180.
a. 1,000,000 Cells of Colon 26 were transplanted subcutaneously to Balb/C mice.

[2] = Effective dosage estimated from the various test results; assay type: in vivo; conditions: average body weight of Balb/C mice taken as 20 g
Sarcoma 180 = Sarcoma 180 transplanted subcutaneously to Balb/C mice: tumor weight; assay type: in vivo; conditions: Sarcoma 180 s.c. in Balb/C mice; Eisenin i.p. and orally 5 mg per animal every other day three times
Source text: as §1

Water solubility = assay type: physicochemical
[3] = system: BW 5174 (thymoma of AKR mouse); assay: Cytotoxicity test (51Cr release) of spleen and intraperitoneal cells of Eisenin-administered mice; assay type: cell-based
Source text: Further, the target cell employed was BW 5174 (thymoma of AKR mouse). The spleen cells and the intraperitoneal cells were respectively divided into the adherent cells and the non-adherent cells, and cytotoxicity was examined in each case.
(1) Percent Cytotoxicity (%) in Table 3 is based on the following
(2) Measurement is made by ^51 Cr release assay. (3) Acute Toxicit

Colon 26 = assay: Sensitivity test: inclusion of tritium thymidine, uridine and leucine into cultured Colon 26; assay type: cell-based; conditions: for Average Counts per Minute, Leucine / Counts per Minute in the Case of Leucine: leucine (protein); for Average Counts per Minute, Leucine / Counts per Minute in the Case of Leucine / Average Counts per Minute, Tritium Thymidine / Counts per Minute in the Case of Tritium Thymidine / Average Counts per Minute, Uridine / Counts per Minute in the Case of Uridine: 3 days; for Counts per Minute in the Case of Leucine / Counts per Minute in the Case of Tritium Thymidine / Counts per Minute in the Case of Uridine: single counts; for Average Counts per Minute, Tritium Thymidine / Counts per Minute in the Case of Tritium Thymidine: tritium thymidine (DNA); for Average Counts per Minute, Uridine / Counts per Minute in the Case of Uridine: uridine (RNA)
Description: (1) Inhibition Index (I.I.) is calculated from the following equation, an
where I.I. exceeds 75%, it is judged effective.
- (2) Measurement is made on a scintillation counter.

Balb/C mice = assay: Acute toxicity test; assay type: in vivo; conditions: for No. of Death: 9 Balb/C mice

L-Pyroglu-L-Gln-L-Ala [Eisenin]
anti-tumor effect (weight of the tumor, survival rate; FIG. 1, FIG. 2) [1]: an anti-tumor effect of Eisenin is recognized | effective dosage as estimated from the test results [2]: about 15 mg per 20 g | anti-tumor effect (weight of the tumor; FIG. 5) (Sarcoma 180): a similar anti-tumor effect is recognized | solubility in water (Water solubility): water soluble | difference in cytotoxicity versus control group, intraperitoneal cells [3]: a significant difference | direct effect on tumor cells (sensitivity test; I.I. above 75% is judged effective) (Colon 26; Colon 26 culture, all concentrations and labels): no direct effect of Eisenin on tumor cells | Average Counts per Minute, Leucine (Colon 26; Eisenin 0.0001 mg/ml): 12232 CPM | Counts per Minute in the Case of Leucine (Colon 26; Eisenin 0.0001 mg/ml): 12952 CPM and 11936 CPM and 11808 CPM and 10952 CPM | Average Counts per Minute, Leucine (Colon 26; Eisenin 0.001 mg/ml): 13743 CPM | Counts per Minute in the Case of Leucine (Colon 26; Eisenin 0.001 mg/ml): 13620 CPM and 14230 CPM and 13379 CPM and 11355 CPM | Average Counts per Minute, Leucine (Colon 26; Eisenin 0.01 mg/ml): 11478 CPM | Counts per Minute in the Case of Leucine (Colon 26; Eisenin 0.01 mg/ml): 12285 CPM and 11020 CPM and 12097 CPM and 11318 CPM | Average Counts per Minute, Leucine (Colon 26; Eisenin 0.1 mg/ml): 11318 CPM | Counts per Minute in the Case of Leucine (Colon 26; Eisenin 0.1 mg/ml): 13311 CPM and 12566 CPM and 8076 CPM and 7076 CPM | Average Counts per Minute, Leucine (Colon 26; Eisenin 1.0 mg/ml): 6521 CPM | Counts per Minute in the Case of Leucine (Colon 26; Eisenin 1.0 mg/ml): 6826 CPM and 6150 CPM and 6587 CPM | Average Counts per Minute, Tritium Thymidine (Colon 26; Eisenin 0.0001 mg/ml): 229878 CPM | Counts per Minute in the Case of Tritium Thymidine (Colon 26; Eisenin 0.0001 mg/ml): 231236 CPM and 219336 CPM and 224786 CPM and 233612 CPM | Average Counts per Minute, Tritium Thymidine (Colon 26; Eisenin 0.001 mg/ml): 218332 CPM | Counts per Minute in the Case of Tritium Thymidine (Colon 26; Eisenin 0.001 mg/ml): 220010 CPM and 213816 CPM and 221170 CPM and 213017 CPM | Average Counts per Minute, Tritium Thymidine (Colon 26; Eisenin 0.01 mg/ml): 238823 CPM | Counts per Minute in the Case of Tritium Thymidine (Colon 26; Eisenin 0.01 mg/ml): 207474 CPM and 229569 CPM and 240628 CPM and 246273 CPM | Average Counts per Minute, Tritium Thymidine (Colon 26; Eisenin 0.1 mg/ml): 198381 CPM | Counts per Minute in the Case of Tritium Thymidine (Colon 26; Eisenin 0.1 mg/ml): 190120 CPM and 203872 CPM and 201151 CPM and 223845 CPM | Average Counts per Minute, Tritium Thymidine (Colon 26; Eisenin 1.0 mg/ml): 170297 CPM | Counts per Minute in the Case of Tritium Thymidine (Colon 26; Eisenin 1.0 mg/ml): 140430 CPM and 171170 CPM and 163554 CPM and 176167 CPM | Average Counts per Minute, Uridine (Colon 26; Eisenin 0.0001 mg/ml): 30793 CPM | Counts per Minute in the Case of Uridine (Colon 26; Eisenin 0.0001 mg/ml): 32836 CPM and 29585 CPM and 24135 CPM and 29958 CPM | Average Counts per Minute, Uridine (Colon 26; Eisenin 0.001 mg/ml): 31169 CPM | Counts per Minute in the Case of Uridine (Colon 26; Eisenin 0.001 mg/ml): 39415 CPM and 31675 CPM and 28671 CPM and 33161 CPM | Average Counts per Minute, Uridine (Colon 26; Eisenin 0.01 mg/ml): 33039 CPM | Counts per Minute in the Case of Uridine (Colon 26; Eisenin 0.01 mg/ml): 37043 CPM and 33211 CPM and 31498 CPM and 34408 CPM | Average Counts per Minute, Uridine (Colon 26; Eisenin 0.1 mg/ml): 25426 CPM | Counts per Minute in the Case of Uridine (Colon 26; Eisenin 0.1 mg/ml): 32774 CPM and 25271 CPM and 24222 CPM and 26786 CPM | Average Counts per Minute, Uridine (Colon 26; Eisenin 1.0 mg/ml): 21107 CPM | Counts per Minute in the Case of Uridine (Colon 26; Eisenin 1.0 mg/ml): 27088 CPM and 20903 CPM and 19954 CPM and 22463 CPM | No. of Death (Balb/C mice; Eisenin 3 g/kg intraperitoneally): 1/9 | No. of Death (Balb/C mice; Eisenin 6 g/kg intraperitoneally): 7/9 | LD50 (Balb/C mice; intraperitoneal, Balb/C mice): ~5 g/kg
